In patent US20090170813A1, “Hypophosphorous Acid Derivatives and their Therapeutical Applications” (priority 2005, published 2009):
Read-outs that look alike come from different tables or passages of the source. Each block holds one molecule with its values, some of them ahead of it.

Tests used:
rat mGlu4 = molecular target: T1, rat mGlu4 (Rattus norvegicus, UniProt P31423); experiment: Agonist activity, [3H]phosphatidylinositol accumulation in HEK293 cells transfected with rat mGlu4 and Gqi9; format: cell-based
T1 construct: expressed in transfected cells; host or cells: HEK293
Protocol: Agonist activity of the compounds was tested on HEK293 cells transiently transfected with rat mGlu4 expressing plasmid pRKG4 and chimeric G-protein Gqi9 by electroporation, as described by Gomeza, J. et al, Mol. Pharmacol; 1996, 50, 923-930.
Cells were plated in 96-well culture plates and labeled overnight with [^3H]myoinositol. The day after, cells were washed three times with Krebs buffer, incubated for 10 min with LiCl 5 mM, and then incubated for 30 min in the absence (basal) or in the presence of the indicated compounds at 1 nM up to 1000 μM. The total amount of [^3H]phosphatidylinositol accumulated in the cells was determined after Dowex purification as previously by Goudet C, et al, Prod. Natl. Acad. Sci. USA 2004, 101, 378-383.
The response dosis curves were adjusted by using equatrier y=[(Ymax−ymin)/(1+(x/EC50)^n)]+ymin where EC50 is the concentration necessary for obtaining half of the maximal effect and n is Hill coefficient.

mGlu8 = mGlu8 (Homo sapiens, UniProt O00222); experiment: Agonist activity on group III receptor mGlu8
mGlu7 = mGlu7 (Homo sapiens, UniProt Q14831); experiment: Agonist activity on group III receptor mGlu7
mGlu4R [1] = molecular target: T2, mGlu4R (Homo sapiens, UniProt Q14833); conditions: background statement; read-out: EC50 as mGlu4R agonist; cited from earlier work
mGlu4R [2] = molecular target: T2, mGlu4R; conditions: background statement; read-out: IC50 as competitive antagonist; cited from earlier work
[3] = Table 1, mean ± spread (n), read-out: EC50 mGlu4
[4] = Table 2, n in brackets, read-out: mGlu4 EC50 μM (n)

T1 sequence (P31423 33-912): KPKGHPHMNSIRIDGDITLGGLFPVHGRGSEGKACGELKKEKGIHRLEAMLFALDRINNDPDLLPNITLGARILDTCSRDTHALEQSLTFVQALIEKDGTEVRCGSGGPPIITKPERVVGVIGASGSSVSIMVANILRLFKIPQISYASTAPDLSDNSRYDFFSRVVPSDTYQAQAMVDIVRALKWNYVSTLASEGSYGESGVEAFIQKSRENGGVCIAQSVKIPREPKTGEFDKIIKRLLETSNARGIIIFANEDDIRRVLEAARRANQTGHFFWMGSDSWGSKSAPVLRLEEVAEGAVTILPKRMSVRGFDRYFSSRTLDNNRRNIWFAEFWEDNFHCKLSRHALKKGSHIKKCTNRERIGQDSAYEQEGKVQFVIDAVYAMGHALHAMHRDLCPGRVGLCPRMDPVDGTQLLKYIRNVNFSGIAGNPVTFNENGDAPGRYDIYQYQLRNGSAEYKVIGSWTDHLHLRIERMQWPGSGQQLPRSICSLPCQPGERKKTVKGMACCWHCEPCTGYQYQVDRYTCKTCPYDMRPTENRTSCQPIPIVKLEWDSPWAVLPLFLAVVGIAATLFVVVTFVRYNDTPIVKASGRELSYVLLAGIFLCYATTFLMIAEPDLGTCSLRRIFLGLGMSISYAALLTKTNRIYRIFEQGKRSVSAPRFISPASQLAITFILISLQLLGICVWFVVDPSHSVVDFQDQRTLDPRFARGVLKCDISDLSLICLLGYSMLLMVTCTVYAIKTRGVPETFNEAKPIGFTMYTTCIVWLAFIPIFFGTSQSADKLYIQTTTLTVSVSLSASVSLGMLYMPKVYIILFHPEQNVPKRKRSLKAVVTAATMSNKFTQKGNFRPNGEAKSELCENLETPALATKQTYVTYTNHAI
mGlu7, sequence (Q14831 35-915): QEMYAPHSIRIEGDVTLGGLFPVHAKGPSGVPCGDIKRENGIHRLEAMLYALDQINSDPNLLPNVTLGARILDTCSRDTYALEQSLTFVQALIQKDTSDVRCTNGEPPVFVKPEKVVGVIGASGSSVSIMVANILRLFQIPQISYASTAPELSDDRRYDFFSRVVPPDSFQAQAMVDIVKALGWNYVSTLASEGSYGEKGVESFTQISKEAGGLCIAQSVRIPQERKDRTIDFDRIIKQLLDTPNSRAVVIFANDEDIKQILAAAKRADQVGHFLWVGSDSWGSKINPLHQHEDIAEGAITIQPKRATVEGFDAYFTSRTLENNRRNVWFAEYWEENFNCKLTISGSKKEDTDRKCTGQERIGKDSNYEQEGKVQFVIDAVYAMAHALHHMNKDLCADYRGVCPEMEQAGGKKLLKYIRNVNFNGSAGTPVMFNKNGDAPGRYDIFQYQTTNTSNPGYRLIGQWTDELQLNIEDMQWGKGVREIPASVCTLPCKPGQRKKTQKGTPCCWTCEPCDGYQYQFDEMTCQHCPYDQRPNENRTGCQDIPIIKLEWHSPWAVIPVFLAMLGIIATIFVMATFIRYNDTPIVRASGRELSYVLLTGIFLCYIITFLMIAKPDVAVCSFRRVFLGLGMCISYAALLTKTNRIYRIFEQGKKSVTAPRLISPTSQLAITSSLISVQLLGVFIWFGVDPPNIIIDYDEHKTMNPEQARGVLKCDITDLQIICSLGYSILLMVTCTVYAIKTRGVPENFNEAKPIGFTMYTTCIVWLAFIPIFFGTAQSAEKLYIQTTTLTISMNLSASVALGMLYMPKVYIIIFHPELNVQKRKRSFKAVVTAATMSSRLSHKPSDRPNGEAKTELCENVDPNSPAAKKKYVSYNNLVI
T2 sequence (Q14833 33-912): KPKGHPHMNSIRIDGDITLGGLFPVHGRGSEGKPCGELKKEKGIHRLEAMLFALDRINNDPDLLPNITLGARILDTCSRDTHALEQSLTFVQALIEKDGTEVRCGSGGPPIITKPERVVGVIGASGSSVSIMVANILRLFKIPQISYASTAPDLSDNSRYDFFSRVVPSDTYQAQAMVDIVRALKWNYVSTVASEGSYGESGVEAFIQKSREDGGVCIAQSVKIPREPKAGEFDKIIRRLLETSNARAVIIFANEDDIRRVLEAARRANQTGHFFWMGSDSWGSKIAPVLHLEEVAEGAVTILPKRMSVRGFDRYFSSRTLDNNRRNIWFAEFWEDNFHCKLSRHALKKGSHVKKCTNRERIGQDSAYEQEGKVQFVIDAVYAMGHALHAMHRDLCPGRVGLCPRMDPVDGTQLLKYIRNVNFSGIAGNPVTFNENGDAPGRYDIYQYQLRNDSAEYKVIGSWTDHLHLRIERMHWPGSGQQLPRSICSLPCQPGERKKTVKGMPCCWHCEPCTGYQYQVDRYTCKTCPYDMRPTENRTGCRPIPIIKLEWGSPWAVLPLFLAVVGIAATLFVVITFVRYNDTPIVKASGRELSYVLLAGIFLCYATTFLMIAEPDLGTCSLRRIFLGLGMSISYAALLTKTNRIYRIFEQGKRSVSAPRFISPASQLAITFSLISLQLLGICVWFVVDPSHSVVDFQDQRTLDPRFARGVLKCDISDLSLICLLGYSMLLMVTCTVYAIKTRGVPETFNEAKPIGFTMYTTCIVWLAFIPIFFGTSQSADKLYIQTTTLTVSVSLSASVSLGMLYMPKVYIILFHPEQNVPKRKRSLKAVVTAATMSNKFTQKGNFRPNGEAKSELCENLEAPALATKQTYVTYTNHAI
mGlu8, sequence (O00222 34-908): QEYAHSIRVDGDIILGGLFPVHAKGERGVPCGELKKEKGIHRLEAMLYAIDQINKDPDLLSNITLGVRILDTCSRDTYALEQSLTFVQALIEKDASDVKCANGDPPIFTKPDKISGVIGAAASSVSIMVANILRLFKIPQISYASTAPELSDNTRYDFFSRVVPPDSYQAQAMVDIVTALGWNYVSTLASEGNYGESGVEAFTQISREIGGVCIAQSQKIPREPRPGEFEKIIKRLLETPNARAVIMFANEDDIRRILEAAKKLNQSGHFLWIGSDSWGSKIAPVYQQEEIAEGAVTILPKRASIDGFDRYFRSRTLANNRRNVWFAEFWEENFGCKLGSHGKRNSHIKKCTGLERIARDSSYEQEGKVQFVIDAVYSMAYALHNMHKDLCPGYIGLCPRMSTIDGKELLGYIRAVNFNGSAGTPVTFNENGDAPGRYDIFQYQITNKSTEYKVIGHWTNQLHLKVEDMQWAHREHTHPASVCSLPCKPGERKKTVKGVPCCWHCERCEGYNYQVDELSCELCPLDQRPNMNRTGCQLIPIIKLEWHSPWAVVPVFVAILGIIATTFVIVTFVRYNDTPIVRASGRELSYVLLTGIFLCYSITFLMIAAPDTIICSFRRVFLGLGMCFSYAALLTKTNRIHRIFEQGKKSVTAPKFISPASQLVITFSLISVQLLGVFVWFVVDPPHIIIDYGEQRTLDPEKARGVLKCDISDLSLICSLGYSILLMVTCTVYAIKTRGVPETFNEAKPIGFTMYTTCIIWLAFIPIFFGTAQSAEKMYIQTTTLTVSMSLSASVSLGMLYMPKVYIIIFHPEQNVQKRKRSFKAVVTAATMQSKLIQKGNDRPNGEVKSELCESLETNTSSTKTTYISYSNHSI

- EC50 (rat mGlu4; [3]): 6.6 ± 2.8 µM
- EC50 (rat mGlu4; [4]): 7.1 µM
- EC50 (mGlu8): 24.2 ± 9 µM
- EC50 (mGlu7): > 1000 µM
SMILES: NC(CCP(=O)(O)CCC(=O)O)C(=O)O (racemic) [Compound 4, 3-[((3-Amino-3-carboxy)propyl)(hydroxy)phosphinyl]propanoic Acid]

- EC50 (rat mGlu4; [3]): 24.2 ± 7.6 µM
- EC50 (mGlu8; read-out: EC50 mGlu8, Table 1, mean ± spread (n)): 58.2 ± 8.8 µM
- EC50 (mGlu7; read-out: EC50 mGlu7, Table 1): > 1000 µM
SMILES: N[C@H](CCP(=O)(O)CCC(=O)O)C(=O)O [(3R)-PCEP, 3-amino-carboxy-propyl-2′-carboxy-ethylphosphinic acid, reference compound]

SMILES: N[C@@H](CCP(=O)(O)C(O)c1cc([N+](=O)[O-])cc([N+](=O)[O-])c1)C(=O)O (stereo partly drawn) [Compound 97, (3S)-3-[(((3-amino-3-carboxy)propyl)(hydroxy)phosphinyl)-hydroxymethyl] 1,5-dinitrobenzene]
- EC50 (rat mGlu4; [4]): 0.81 µM

SMILES: NC(CCP(=O)(O)O)C(=O)O [L-AP4]
- EC50 (mGlu4R [1]): 0.32 µM

SMILES: CC(N)(CCP(=O)(O)O)C(=O)O (stereo not drawn) [α-methyl analogue]
- IC50 (mGlu4R [2]): 100 µM
